# Measured values: US5770687A, “Comformationally constrained backbone cyclized somatostatin analogs” (Peptor Limited, priority 1996, dated 1998)
# Where two headings read alike, the source gives them in different places. Peptide text beside a SMILES is read from it.
# Assays:
# [1] = biological target: T1, SSTR-4 (Homo sapiens, UniProt P31391); experiment: Radioligand binding, inhibition of 125I-Tyr11-SRIF binding to cloned SSTR-4
# Procedure: (§1) The somatostatin analogs were tested for their potency in inhibition of the binding of ^125 I-Tyr^11 -SRIF (based on the method described by Raynor et. al., Molecular Pharmacology 43, 838-844, 1993) to membrane preparations expressing the transmembranal somatostatin receptors (SSTR-1,2,3,4 or 5). The receptor preparations used for these tests were either from the cloned receptors selectively and stably expressed in Chinese Hamster Ovary (CHO) cells or from cell lines naturally expressing the SSTRs. […] The binding reactions were filtered, the filters were washed and the bound radioactivity was counted in gamma counter. […] In order to validate positive signals of the binding tests, and to eliminate non-specific signals, samples of irrelevant peptides, such as GnRH, that were synthesized and handled using the same procedures, were tested in the same assays as negative control samples.
# [2] = biological target: T2, rat SSTR-5 (Rattus norvegicus, UniProt P30938); experiment: Radioligand binding, inhibition of 125I-Tyr11-SRIF binding to cloned rat SSTR-5
# T2 sequence (P30938 1-363): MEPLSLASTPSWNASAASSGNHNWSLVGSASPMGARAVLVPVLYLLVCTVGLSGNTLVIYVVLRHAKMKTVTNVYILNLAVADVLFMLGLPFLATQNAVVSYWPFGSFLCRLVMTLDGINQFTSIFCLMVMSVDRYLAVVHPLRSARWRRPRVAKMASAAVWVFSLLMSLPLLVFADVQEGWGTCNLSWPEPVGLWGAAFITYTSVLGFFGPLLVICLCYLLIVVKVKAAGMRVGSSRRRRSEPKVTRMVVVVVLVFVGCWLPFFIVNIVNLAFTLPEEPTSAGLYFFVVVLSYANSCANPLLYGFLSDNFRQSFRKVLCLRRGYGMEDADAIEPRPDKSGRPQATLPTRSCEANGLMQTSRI
# Procedure: as §1
# [3] = biological target: T3, SSTR-3 (Homo sapiens, UniProt P32745); experiment: Radioligand binding, inhibition of 125I-Tyr11-SRIF binding to cloned SSTR-3
# Procedure: as §1
# [4] = biological target: T4, human SSTR-5 (Homo sapiens, UniProt P35346); experiment: Radioligand binding, inhibition of 125I-Tyr11-SRIF binding to cloned human SSTR-5
# Procedure: as §1
# [5] = biological target: T5, SSTR-1 (Homo sapiens, UniProt P30872); experiment: Radioligand binding, inhibition of 125I-Tyr11-SRIF binding to cloned SSTR-1
# Procedure: as §1
# [6] = biological target: T2, rat SSTR-5; settings: Table 22; known SST analogs, literature values; read-out: IC50 value rSSTR 5; cited from earlier work
# [7] = tested on: SSTR-2; settings: Table 22; known SST analogs, literature values; cited from earlier work
# [8] = biological target: T5, SSTR-1; settings: Table 22; known SST analogs, literature values; cited from earlier work
# [9] = biological target: T3, SSTR-3; settings: Table 22; known SST analogs, literature values; cited from earlier work
# [10] = biological target: T1, SSTR-4; settings: Table 22; known SST analogs, literature values; cited from earlier work
# [11] = biological target: T4, human SSTR-5; settings: Table 22; known SST analogs, literature values; read-out: IC50 value hSSTR 5; cited from earlier work
# T1 sequence (P31391 whole entry, species assumed): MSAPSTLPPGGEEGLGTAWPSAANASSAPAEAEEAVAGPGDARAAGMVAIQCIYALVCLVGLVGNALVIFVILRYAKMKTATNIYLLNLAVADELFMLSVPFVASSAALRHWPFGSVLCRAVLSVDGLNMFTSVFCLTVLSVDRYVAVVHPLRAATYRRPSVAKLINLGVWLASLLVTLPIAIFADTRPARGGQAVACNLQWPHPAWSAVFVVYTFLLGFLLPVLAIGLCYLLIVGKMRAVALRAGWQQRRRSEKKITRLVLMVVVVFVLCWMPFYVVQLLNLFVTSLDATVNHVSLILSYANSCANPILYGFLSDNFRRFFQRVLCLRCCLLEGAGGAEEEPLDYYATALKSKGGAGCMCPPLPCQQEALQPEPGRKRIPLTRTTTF
# T4 sequence (P35346 whole entry): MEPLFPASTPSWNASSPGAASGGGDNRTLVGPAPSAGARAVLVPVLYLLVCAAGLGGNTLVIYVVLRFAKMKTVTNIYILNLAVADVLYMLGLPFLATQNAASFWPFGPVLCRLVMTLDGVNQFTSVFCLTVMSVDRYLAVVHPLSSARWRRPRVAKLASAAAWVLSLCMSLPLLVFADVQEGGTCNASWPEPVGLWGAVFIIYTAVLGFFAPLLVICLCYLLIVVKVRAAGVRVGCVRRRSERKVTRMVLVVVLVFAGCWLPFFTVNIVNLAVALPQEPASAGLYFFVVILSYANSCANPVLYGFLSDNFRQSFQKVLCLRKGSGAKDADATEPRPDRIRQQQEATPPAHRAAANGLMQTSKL
# T5 sequence (P30872 whole entry, species assumed): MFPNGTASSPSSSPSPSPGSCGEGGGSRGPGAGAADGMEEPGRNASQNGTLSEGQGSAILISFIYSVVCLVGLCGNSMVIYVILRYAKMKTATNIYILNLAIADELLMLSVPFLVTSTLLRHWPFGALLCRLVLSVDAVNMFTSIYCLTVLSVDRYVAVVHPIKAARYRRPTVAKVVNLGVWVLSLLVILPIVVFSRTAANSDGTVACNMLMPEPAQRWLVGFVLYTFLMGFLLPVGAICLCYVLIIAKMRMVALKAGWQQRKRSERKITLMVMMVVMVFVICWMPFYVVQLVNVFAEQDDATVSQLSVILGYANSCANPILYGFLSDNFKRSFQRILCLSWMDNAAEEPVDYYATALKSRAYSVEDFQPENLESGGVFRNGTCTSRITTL
# T3 sequence (P32745 whole entry, species assumed): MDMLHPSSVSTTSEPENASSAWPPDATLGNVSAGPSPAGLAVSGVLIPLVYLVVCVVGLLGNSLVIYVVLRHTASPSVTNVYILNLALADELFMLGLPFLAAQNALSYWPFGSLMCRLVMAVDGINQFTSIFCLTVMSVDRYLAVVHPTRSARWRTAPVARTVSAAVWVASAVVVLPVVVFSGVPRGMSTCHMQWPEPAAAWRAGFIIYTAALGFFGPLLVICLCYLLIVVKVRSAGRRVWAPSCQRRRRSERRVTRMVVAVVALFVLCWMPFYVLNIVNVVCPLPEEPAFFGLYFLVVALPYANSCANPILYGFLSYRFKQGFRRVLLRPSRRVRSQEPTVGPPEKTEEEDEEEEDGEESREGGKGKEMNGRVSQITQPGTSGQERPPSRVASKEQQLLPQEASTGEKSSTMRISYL
IC50 [1] [µM],IC50 [2] [nM],IC50 [3] [nM],IC50 [4] [nM],IC50 [5] [nM],Molecule,IC50 [6] [nM],IC50 [7] [nM],IC50 [8] [nM],IC50 [9] [nM],IC50 [10] [nM],IC50 [11] [nM]
> 10,500,> 1000,> 2000,2500,"C[C@@H](O)[C@H](NC(=O)CN1CCC(=O)NCCCN(C(=O)[C@H](N)Cc2ccccc2)CC(=O)N[C@@H](Cc2ccccc2)C(=O)N[C@H](Cc2c[nH]c3ccccc23)C(=O)N[C@@H](CCCCN)C(=O)N[C@@H]([C@@H](C)O)C1=O)C(N)=O [PTR 3010] (HELM PEPTIDE1{[dF].[O=C(CN(CCCN[*:3])[*:1])[*:2]].F.[dW].K.T.[O=C(CN(CCC(=O)[*:3])[*:1])[*:2]].T.[am]}$PEPTIDE1,PEPTIDE1,2:R3-7:R3$$$V2.0)",,,,,,
,,,,,CC(C)[C@@H]1NC(=O)[C@H](CCCCN)NC(=O)[C@@H](Cc2c[nH]c3ccccc23)NC(=O)[C@H](Cc2ccc(O)cc2)NC(=O)[C@@H](NC(=O)[C@H](N)Cc2ccc3ccccc3c2)CSSC[C@@H](C(=O)N[C@H](C(N)=O)[C@@H](C)O)NC1=O [Somatuline],0.5,2,800,6,,
,,,,,DPhe^5 -Phe^6 -Phe^7 -DTrp^8 -Lys^9 -Thr^10 -Phe^11 -Thr^12 -NH2 [BIM-23052],0.004,,,,18,4
